Data on two molecules can be found in patent US20230124095A1 (AMORPHICAL LTD., priority 2020, published 2023).

In one test the test system is Cathepsin S. Briefly: Cathepsin S activity in Lewis lung carcinoma tumors of treated mice (fluorometric kit). It is filed as in vivo. The settings on record: 12 days treatment; vs untreated (saline) group. Here is the method: (§1) The study was performed with C57BL/6 mice at the age of 6-8 weeks. Eight mice were allocated into each study group. Light anesthesia was administered by isoflurane inhalation. LLC cells in a concentration of 2.5×10^5 cells in 100 μl PBS were intradermally injected (subcutaneously) into the right flank of each mice. […] Cisplatin was given according to manufacturer instructions.
(§2) Ten days following tumor inoculation, when the tumor reached a volume of about >60 mm^3, mice were randomly allocated into the study groups. Various treatments were administered to each group starting Day 10 onwards. The treatment duration lasted for 12 days.
(§3) Both Cathepsin B and S activities were measured using samples from the same groups according to kit instructions. […] Cathepsin B Activity Assay Kit (Fluorometric) (ab65300) and Cathepsin S Activity Assay Kit (Fluorometric) (ab65303) by Abcam (Cambridge, UK) were used.

The subject of test [1] is Lewis Lung Carcinoma (LLC). Briefly: Tumor growth in subcutaneous LLC model, ACC with different stabilizers given IP or IV. In kind it is in vivo, mice. Conditions: group 2F, per manufacturer.
The test system of a further test is Cathepsin B. Briefly: Cathepsin B activity in Lewis lung carcinoma tumors of treated mice (fluorometric kit). In kind it is in vivo. The settings on record: 12 days treatment; vs untreated (saline) group. Here is the method: 8 tumors were analyzed per group. For the assay, 20 mg from each extracted tumor were weighed and lysed. Measurements were done using Cathepsin B Activity Assay Kit (Fluorometric) (ab65300) by Abcam (Cambridge, UK). The assays were performed on tumors from the two groups. The lysed samples were treated per Kit instructions, i.e., incubated with Cathepsin B substrate for 1 hour at 37° C. to identify the activity of the lysosomal protein.
as §1, §2, §3

The test system of test [2] is Experimental Autoimmune Encephalomyelitis (EAE) model. Briefly: Clinical score in MOG-induced EAE multiple sclerosis model in mice. In kind it is in vivo.

Regarding `N.N.[Cl][Pt][Cl]` [Cisplatin], the “increase in Cathepsin S activity in tumors” value with Cathepsin S is recorded as 30%. The “Mean tumor volume on Day 25” value in test [1] turned out to be 1342 mm^3. In addition, the “reduction in Cathepsin B activity in tumors” value in the test with Cathepsin B came out at 43%.
For the molecule Glatiramer acetate [Copaxone], the “day on which paralysis signs started” value in test [2] (C57BL mice, n=10 per group) was 11 days. Moreover, the “score of the paralysis signs at plateau” value in test [2] (after days 15 and 16 of treatments) is listed as “the same paralysis score”. The “score of the paralysis signs at the end of the study” value in test [2] (study duration 55 days) is “higher score”. In addition, the “paralysis progression at the initial phase” value in test [2] (until day 15, compared to mice given saline or ACC) is listed as “slower paralysis progression”.
